Entries after “also recorded” stand apart in the source; their conditions may differ.
How the values were obtained:
[1] = molecular target: T1, p300 (Homo sapiens, UniProt Q09472); experiment: HAT activity of HATs expressed in 293 cells; assay type: cell-based; conditions: combination of ERK2 expression and Isx, 24 h (FIG. 8)
T1 construct: expressed in transfected cells; host or cells: HEK293
Description: (FIG. 8A) Combined effect of Isx treatment for 24 h and WT ERK2 (W) or kinase dead K52R ERK2 (R) on the HAT activities of p300, and (FIG. 8B) other HATs, CBP, PCAF and GCN5-L2, transfected in HEK293 cells.

[2] = system: MIN6 cells; experiment: Insulin secretion (GSIS) and insulin content in MIN6 cells; assay type: cell-based, mouse
Description: (§1) MIN6 cells were cultured in DMEM (Gibco), containing 25 mM glucose, 10% fetal bovine serum, 10 mM Hepes pH 7.4, 10.2 mM L-glutamine, […] sodium pyruvate, 2.5 mM β-mercaptoethanol, 100 U/ml penicillin and 100 μg/ml streptomycin at 37° C. in 10% CO2. Human islets were obtained from the ICR Basic Science Islet Distribution and from the University of Alabama, Birmingham Islet Resource Facility and were cultured in RPMI 1640 with 11 mM glucose for up to 1 year. The medium was changed twice weekly and the islets were subcultured when they reached 90% confluence. For Isx treatments, cells were incubated in medium containing either Isx or the equivalent volume of DMSO vehicle (0.04%). To measure GSIS, cells were placed in Krebs-Ringer bicarbonate/Hepes containing 0.1% bovine serum albumin and 2 mM glucose for 2 h, and stimulated for 15 min with 20 mM glucose, a 1× amino-acid mixture (concentrations as in DMEM), or 50 nM Exendin-4. U0126 (10 μM), nifedipine (3 μM), BAPTA (10 μM), wortmanin (0.5 μM) or FK506 (0.1 μM) were added for 1-24 h as indicated.

[3] = system: MIN6 cells; experiment: Immunoblotting of MIN6 whole cell lysates; assay type: cell-based, mouse
Description: FIGS. 2[…]-1) activates insulin expression and improves β cell function in MIN6 cells. (FIG. 2A) Dose-response relationship of MIN6 cells treated with 5-80 μM Isx for 24 h or DMSO (0.08%-similar to the highest concentration of Isx). Whole cell lysates (40 μg) were subjected to immunoblotting using antibodies against BETA2NeuroD1, MafA, PDX-1, pERK1/2 (pT183/[…]), acetylated histones […] and ACH3K9 and total histone H3. (FIG. 2B) Quantitative RT-PCR of murine insulin1 and insulin2 gene expression in MIN6 cells treated with Isx for 24 h as in FIG. 2A. […] (FIG. 2D) Insulin content measured by ELISA in MIN6 cells treated with Isx for 24 or 48 h. (FIG. 2E) GSIS induced by glucose, amino acids (AA) and Exendin-4 (Ex-4) singly or in combination in MIN6 cells pretreated with Isx for 48 h. FIGS. 4[…]-1) is a HAT activator. (FIG. 4A) Immunoblots of acetylated histones in MIN6 cells pretreated with the indicated inhibitors for 16 h and then treated with vehicle or Isx. (FIGS. 4B-C) HDAC (FIG. 4B) and HAT (FIG. 4C) activities in 50 μg of nuclear extract protein from MIN6 cells treated with Isx or DMSO for 24 h. Trichostatin A (TSA; 2 μM) was added at as a positive control. HeLa nuclear extract also was included as a positive control. […] Statistical analysis was performed using Student's t test as in FIGS. 1A-E. *P<0.05; **P<0.01. (FIG. 4G) Simplified view of the actions of Isx. FIG. 6. Time course of […]-1) treatment in MIN6 cells. Immunoblotting of whole cell extracts from MIN6 cells grown for 24 h in complete DMEM containing […] and treated with 20 μM Isx for from 15 min to 24 h. The control (0 min) was treated with DMSO for 24 h. MIN6 cells were cultured in DMEM (Gibco), containing 25 mM glucose, 10% fetal bovine serum, 10 mM Hepes pH 7.4, 10.2 mM L-glutamine, […] sodium pyruvate, 2.5 mM β-mercaptoethanol, 100 U/ml penicillin and 100 μg/ml streptomycin at 37° C. in 10% CO2. Human islets were obtained from the ICR Basic Science Islet Distribution and from the University of Alabama, Birmingham Islet Resource Facility and were cultured in RPMI 1640 with 11 mM glucose for up to 1 year. The medium was changed twice weekly and the islets were subcultured when they reached 90% confluence. For Isx treatments, cells were incubated in medium containing either Isx or the equivalent volume of DMSO vehicle (0.04%). To measure GSIS, cells were placed in Krebs-Ringer bicarbonate/Hepes containing 0.1% bovine serum albumin and 2 mM glucose for 2 h, and stimulated for 15 min with 20 mM glucose, a 1× amino-acid mixture (concentrations as in DMEM), or 50 nM Exendin-4.

[4] = system: human islets; experiment: Insulin secretion and insulin content (ELISA) of cultured human islets; assay type: cell-based
Description: FIGS. 1A-E. Isx (LSH-1) induces expression of insulin and transcription factors in primary cultured human islets. (FIG. 1A) Primary human islets that had been cultured in RPMI 160 for 6 months were treated with vehicle or 40 μM Isx for 1 or 2 d. Expression of human insulin and glucagon genes was assessed by Taqman quantitative RT-PCR. (FIG. 1B) Insulin secretion measured by ELISA over 24 h from islets treated with Isx or vehicle for 1 or 2 d. (FIG. 1C) Total insulin content of islets cultured for 3 mo and fresh islets, each treated for 48 h with Isx or DMSO. (FIG. 1D) Time course of pancreatic gene induction in islets cultured for 1 year treated with DMSO (8 days) or 40 μM Isx for 2, 4 or 8 days. (FIG. 1E) Immunohistochemical staining using antibodies against insulin, BETA2, Neurogenin3 (Ngn3) and MafA of islets cultured for 2 months and treated with Isx or vehicle for 48 h. Nuclei were stained with DAPI.
FIGS. 5A-E. Gene expression induced by Isx (LSH-1) in human islet cultures. (FIG. 5A) Structure of the lead compound N-cyclopropyl-5-(thiophen-2-yl)isoxazole-3-carboxamide (Isx) used in this study. (FIG. 5B) Expression profiles of relevant islet factors by Sybr-Green qPCR analyses from human islets cultured for 1 year as in FIG. 1D. (FIG. 5C) Insulin immunohistochemical staining in human islets cultured for 2 months. Nuclei are stained with DAPI. (FIG. 5D) Immunoblotting of whole cell extracts from human islets cultured for six months treated with vehicle (DMSO) or Isx for 24 h. (FIG. 5E) Human islets cultured for 6 months were treated with DMSO (Veh) or Isx for 48 h. To implicate signaling pathways that are required for the isoxazole-driven increase in β cell function, measured as GSIS, the isoxazole-treated islets were also treated with vehicle (Veh), 10 μM U0126 (U), 10 μM Nifedipine-BAPTA (N-B), or 0.1 μM wortmannin (W) for the duration of the isoxazole treatment.
as §1, with “To measure GSIS, cells were placed in Krebs-Ringer bicarbonate/Hepes containing 0.1% bovine serum albumin and 2 mM glucose for 2 h, and stimulated for 15 min with 20 mM glucose, a 1× amino-acid mixture (concentrations as in DMEM), or 50 nM Exendin-4. U0126 (10 μM), nifedipine (3 μM), BAPTA (10 μM), wortmanin (0.5 μM) or FK506 (0.1 μM) were added for 1-24 h as indicated.” left out

[5] = 24 h exposure, 5-80 μM Isx (FIG. 2A)

T1 sequence (Q09472 whole entry, species assumed): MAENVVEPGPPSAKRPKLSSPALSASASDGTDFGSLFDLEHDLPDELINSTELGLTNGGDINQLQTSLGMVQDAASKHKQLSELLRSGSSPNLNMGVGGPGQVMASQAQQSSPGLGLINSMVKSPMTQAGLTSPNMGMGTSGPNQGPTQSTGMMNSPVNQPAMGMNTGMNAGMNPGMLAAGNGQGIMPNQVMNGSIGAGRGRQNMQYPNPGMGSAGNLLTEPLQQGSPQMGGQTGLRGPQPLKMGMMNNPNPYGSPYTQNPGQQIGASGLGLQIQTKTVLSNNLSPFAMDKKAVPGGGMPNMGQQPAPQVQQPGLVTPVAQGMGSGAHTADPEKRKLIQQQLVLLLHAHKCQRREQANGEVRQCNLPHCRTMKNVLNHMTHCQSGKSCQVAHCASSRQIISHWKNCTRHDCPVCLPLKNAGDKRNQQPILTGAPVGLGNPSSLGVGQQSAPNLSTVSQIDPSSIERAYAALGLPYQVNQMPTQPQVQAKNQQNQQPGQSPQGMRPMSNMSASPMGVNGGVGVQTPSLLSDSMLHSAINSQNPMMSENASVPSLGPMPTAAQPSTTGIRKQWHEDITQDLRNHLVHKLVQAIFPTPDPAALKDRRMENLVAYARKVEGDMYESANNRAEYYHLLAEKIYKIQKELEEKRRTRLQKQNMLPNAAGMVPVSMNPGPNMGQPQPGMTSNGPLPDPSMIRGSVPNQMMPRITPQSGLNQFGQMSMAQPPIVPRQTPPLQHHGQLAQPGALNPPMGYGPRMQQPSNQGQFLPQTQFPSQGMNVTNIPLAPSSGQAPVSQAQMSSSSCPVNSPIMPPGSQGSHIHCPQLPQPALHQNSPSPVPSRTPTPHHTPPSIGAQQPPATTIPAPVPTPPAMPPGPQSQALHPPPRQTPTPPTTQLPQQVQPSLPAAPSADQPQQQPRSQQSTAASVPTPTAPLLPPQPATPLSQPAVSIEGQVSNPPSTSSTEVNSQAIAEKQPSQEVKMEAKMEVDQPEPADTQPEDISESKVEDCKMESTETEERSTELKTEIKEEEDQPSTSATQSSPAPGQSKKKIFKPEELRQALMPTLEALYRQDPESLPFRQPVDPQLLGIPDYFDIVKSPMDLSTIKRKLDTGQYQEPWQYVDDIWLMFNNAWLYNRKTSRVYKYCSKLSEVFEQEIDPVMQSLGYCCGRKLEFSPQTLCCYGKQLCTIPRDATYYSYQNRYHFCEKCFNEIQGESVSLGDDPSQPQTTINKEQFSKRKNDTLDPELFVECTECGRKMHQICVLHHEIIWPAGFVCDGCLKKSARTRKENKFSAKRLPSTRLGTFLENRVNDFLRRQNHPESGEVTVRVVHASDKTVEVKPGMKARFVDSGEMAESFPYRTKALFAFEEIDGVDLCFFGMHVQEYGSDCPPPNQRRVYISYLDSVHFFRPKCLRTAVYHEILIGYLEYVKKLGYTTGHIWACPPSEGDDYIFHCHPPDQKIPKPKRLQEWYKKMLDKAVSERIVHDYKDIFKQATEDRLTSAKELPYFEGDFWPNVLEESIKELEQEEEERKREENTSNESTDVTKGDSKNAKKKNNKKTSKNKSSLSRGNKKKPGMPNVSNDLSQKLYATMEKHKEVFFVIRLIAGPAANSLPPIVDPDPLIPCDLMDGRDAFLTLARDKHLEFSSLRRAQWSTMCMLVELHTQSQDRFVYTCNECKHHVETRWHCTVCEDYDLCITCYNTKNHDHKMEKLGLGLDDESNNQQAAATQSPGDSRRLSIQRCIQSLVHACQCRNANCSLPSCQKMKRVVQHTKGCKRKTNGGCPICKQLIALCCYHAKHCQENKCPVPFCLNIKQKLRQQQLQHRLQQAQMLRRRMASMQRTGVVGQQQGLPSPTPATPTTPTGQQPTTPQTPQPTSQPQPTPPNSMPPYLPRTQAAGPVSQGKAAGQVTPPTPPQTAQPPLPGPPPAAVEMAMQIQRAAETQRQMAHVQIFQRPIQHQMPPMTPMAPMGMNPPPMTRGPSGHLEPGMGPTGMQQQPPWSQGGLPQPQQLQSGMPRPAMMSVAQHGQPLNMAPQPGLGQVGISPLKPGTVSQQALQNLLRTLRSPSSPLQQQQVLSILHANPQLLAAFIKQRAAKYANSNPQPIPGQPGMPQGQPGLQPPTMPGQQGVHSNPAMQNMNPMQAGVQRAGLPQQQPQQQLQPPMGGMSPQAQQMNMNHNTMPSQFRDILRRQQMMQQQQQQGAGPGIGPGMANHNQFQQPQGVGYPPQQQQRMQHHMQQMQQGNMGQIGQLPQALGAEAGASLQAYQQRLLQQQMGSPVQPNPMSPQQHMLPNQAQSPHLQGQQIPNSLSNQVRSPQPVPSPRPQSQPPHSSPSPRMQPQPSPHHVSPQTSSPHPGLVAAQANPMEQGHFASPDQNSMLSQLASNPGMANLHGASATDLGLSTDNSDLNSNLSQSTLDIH

p300 HAT activity [1]: increased
Compound: O=C(NC1CC1)c1cc(-c2cccs2)on1 [Isx, N-cyclopropyl-5-(thiophen-2-yl)isoxazole-3-carboxamide]
insulin content ([2]; Isx 24 or 48 h (FIG. 2D)): relatively small increase
Glucose-stimulated insulin secretion (GSIS) increase ([2]; Isx pretreatment 48 h (FIG. 2C)): ~4 fold
increase of stimulation of insulin secretion by glucose, amino acids and exendin-4, individually and in combination ([2]; Isx pretreatment 48 h (FIG. 2E)): 2 to 5 fold
ERK1/2 activation, time course ([3]; 20 μM Isx, 15 min to 24 h (FIG. 6)): biphasic effect
MafA expression [3, 5]: increased substantially
PDX-1 expression [3, 5]: little if any change
immunoreactive BETA2 [3, 5]: increased at all concentrations
Acetylation of histone H3 and H4 ([3]; MIN6 cells treated with Isx (FIG. 2A, FIG. 4A)): increased; also recorded: marked effect
ERK1/2 phosphorylation ([3]; following 24 h of exposure): detectable
increase of insulin content of fresh islets ([4]; 2-day exposure to Isx): ~25%
Insulin content relative to the insulin content of islets isolated only 1 week earlier ([4]; 3 month-old islets treated with Isx (FIG. 1C)): ~75%
Insulin content increase ([4]; 3 month-old islets, Isx 48 h (FIG. 1C)): ~10 fold
Insulin secreted over a 24-h period ([4]; human islets in culture for 6 months, Isx 1 or 2 d (FIG. 1B)): markedly increased
